In the supplement of paper PMC10331698:
± gives the standard deviation of the averaged measurements.

Columns and labels:
Experiment in all cases: level (log10 ratio to DMSO vehicle control); higher = higher biomarker level / cell amount than vehicle control
Perfluorononanoic acid = compound: O=C(O)C(F)(F)C(F)(F)C(F)(F)C(F)(F)C(F)(F)C(F)(F)C(F)(F)C(F)(F)F [Perfluorononanoic acid] (in DMSO)
Procedure: (§1)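 BioMAP Diversity Plus panel of 12 human primary cell co-culture systems (3C, 4H, LPS, SAg, BT, BF4T, BE3C, CASM3C, HDF3CGF, KF3CT, MyoF, Mphg). Compounds were added 1 h before stimulation and left for 24 h (MyoF 48 h; BT 72 h for soluble read-outs or 6 d for IgG). Biomarkers were read by ELISA, cytotoxicity by SRB, PBMC viability and proliferation by Alamar Blue. Each well value was divided by the mean of 8 DMSO control wells on the same plate and log10 transformed; duplicate blinded samples were tested at 4 concentrations.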

[1] = compound: C=C(C)C(=O)OCCC(F)(F)C(F)(F)C(F)(F)C(F)(F)C(F)(F)C(F)(F)C(F)(F)C(F)(F)F [8:2 Fluorotelomer methacrylate] (in DMSO)
Procedure: as §1

[2] = compound: OCCC(F)(F)C(F)(F)C(F)(F)C(F)(F)F [4:2 Fluorotelomer alcohol] (in DMSO)
Procedure: as §1

[3] = compound: O=C(O)C(F)(OC(F)(F)C(F)(OC(F)(F)C(F)(OC(F)(F)C(F)(F)C(F)(F)F)C(F)(F)F)C(F)(F)F)C(F)(F)F [Perfluoro-(2,5,8-trimethyl-3,6,9-trioxadodecanoic)acid] (in DMSO)
Procedure: as §1

[4] = compound: CN(C(=O)C(F)(F)C(F)(F)C(F)(F)F)[Si](C)(C)C [N-Methyl-N-trimethylsilylheptafluorobutyramide] (in DMSO)
Procedure: as §1

[5] = compound: O=C(O)C(F)(F)OC(F)(F)C(F)(F)OC(F)(F)C(F)(F)OC(F)(F)C(F)(F)C(F)(F)C(F)(F)F [Perfluoro-3,6,9-trioxatridecanoic acid] (in DMSO); conditions: 6700 nM
Procedure: as §1

[6] = compound: O=C(O)C(F)(F)C(F)(F)C(F)(F)OC(F)(F)F [Perfluoro(4-methoxybutanoic) acid] (in DMSO)
Procedure: as §1

[7] = compound: O=S(=O)(O)C(F)(F)C(F)(F)OC(F)(F)C(F)(F)F [Perfluoro(2-ethoxyethane)sulfonic acid] (in DMSO)
Procedure: as §1

Row | Test System | level (log10) (Perfluorononanoic acid; 6700 nM) | level (log10) (Perfluorononanoic acid; 20000 nM) | level (log10) ([1]; 6700 nM) | level (log10) ([1]; 20000 nM) | level (log10) ([2]; 6700 nM) | level (log10) ([2]; 20000 nM) | level (log10) ([2]; 60000 nM) | level (log10) ([3]; 1100 nM) | level (log10) ([3]; 3300 nM) | level (log10) ([3]; 10000 nM) | level (log10) ([4]; 6700 nM) | level (log10) ([4]; 20000 nM) | level (log10) ([4]; 60000 nM) | level (log10) [5] | level (log10) ([6]; 6700 nM) | level (log10) ([6]; 20000 nM) | level (log10) ([6]; 60000 nM) | level (log10) ([7]; 6700 nM) | level (log10) ([7]; 20000 nM) | level (log10) ([7]; 60000 nM)
1 | MyoF:PAI-I | -0.01 ± 0.028 | 0.0105 ± 0.03 | 0.0005 ± 0.0078 | -0.013 ± 0.0071 | -0.0185 ± 0.018 | -0.0215 ± 0.019 | -0.0155 ± 0.00071 | 0.005 ± 0.021 | 0.006 ± 0.0085 | 0.0085 ± 0.016 | -0.009 ± 0.021 | 0.0095 ± 0.015 | 0.0105 ± 0.0092 | -0.0885 ± 0.046 | -0.003 ± 0.0042 | -0.0045 ± 0.0064 | 0.0005 ± 0.00071 | -0.0005 ± 0.00071 | -0.009 ± 0.013 | 0.0015 ± 0.011
2 | MyoF:Collagen IV | 0.0215 ± 0.022 | 0.221 ± 0.063 | -0.0265 ± 0.015 | -0.027 ± 0.025 | 0 ± 0.0057 | -0.0095 ± 0.012 | 0.0285 ± 0.05 | 0.034 ± 0.054 | 0.0255 ± 0.037 | 0.0225 ± 0.025 | 0.0175 ± 0.0021 | 0.0075 ± 0.0078 | 0.0325 ± 0.04 | 0.412 ± 0.089 | -0.0165 ± 0.0021 | -0.0125 ± 0.0035 | 0.016 ± 0.027 | 0.0015 ± 0.0021 | 0.004 ± 0.016 | 0.0315 ± 0.04
3 | lMphg:CXCL8/IL-8 | 0.093 ± 0.03 | 0.186 ± 0.06 | 0.0355 ± 0.023 | 0.085 ± 0.016 | 0.003 | 0.0065 ± 0.033 | 0.0275 ± 0.035 | 0.0035 ± 0.04 | 0.005 ± 0.02 | 0.0375 ± 0.033 | -0.0215 ± 0.0078 | 0.009 ± 0.027 | 0.0155 ± 0.025 | 0.126 ± 0.016 | 0.001 ± 0.04 | 0.005 ± 0.011 | 0.083 ± 0.037 | 0.0055 ± 0.005 | 0.034 ± 0.018 | 0.118 ± 0.016
4 | MyoF:SRB | 0.0025 ± 0.0064 | -0.0155 ± 0.0021 | 0.0025 ± 0.0064 | -0.0015 ± 0.005 | -0.0015 ± 0.0035 | 0.0015 ± 0.0035 | -0.0015 ± 0.005 | -0.0065 ± 0.005 | 0.008 ± 0.018 | 0.0085 ± 0.015 | 0.0035 ± 0.012 | 0.0035 ± 0.0035 | 0.0055 ± 0.0035 | -0.0815 ± 0.0064 | -0.0075 ± 0.0035 | -0.008 ± 0.0028 | -0.0005 ± 0.00071 | -0.005 ± 0.0071 | -0.005 | -0.0015 ± 0.0064
5 | 3C:CD142/Tissue Factor | -0.0555 ± 0.0021 | -0.0455 ± 0.032 | 0.0445 ± 0.047 | 0.0595 ± 0.022 | -0.016 ± 0.018 | -0.04 ± 0.045 | -0.0375 ± 0.00071 | -0.013 ± 0.0042 | -0.0055 ± 0.015 | -0.005 ± 0.013 | 0.0195 ± 0.044 | 0.02 ± 0.013 | 0.026 ± 0.033 | -0.0085 ± 0.03 | 0.0125 ± 0.077 | 0.013 ± 0.095 | -0.021 ± 0.12 | 0.013 ± 0.0057 | -0.001 ± 0.024 | 0.017 ± 0.0042
6 | CASM3C:CD142/Tissue Factor | -0.093 ± 0.064 | -0.115 ± 0.14 | -0.023 ± 0.018 | -0.0195 ± 0.057 | -0.014 ± 0.079 | -0.028 ± 0.0014 | 0.0225 ± 0.046 | 0.0095 ± 0.018 | 0.0085 ± 0.011 | 0.0025 ± 0.015 | -0.021 ± 0.016 | -0.012 ± 0.0028 | 0.0135 ± 0.026 | 0.013 ± 0.02 | 0.0005 ± 0.018 | -0.0175 ± 0.011 | -0.051 ± 0.018 | -0.023 ± 0.0085 | -0.0335 ± 0.035 | 0.045 ± 0.067
7 | CASM3C:CD87/uPAR | -0.02 ± 0.0071 | 0.023 | -0.006 ± 0.05 | -0.022 ± 0.033 | 0.0005 ± 0.023 | 0.007 ± 0.013 | -0.003 ± 0.021 | 0.0175 ± 0.022 | 0.0015 ± 0.018 | 0.0265 ± 0.0035 | -0.016 ± 0.042 | -0.028 ± 0.025 | -0.012 ± 0.0057 | 0.0205 ± 0.018 | -0.0135 ± 0.04 | -0.0095 ± 0.0092 | -0.0255 ± 0.016 | 0.0025 ± 0.032 | 0.01 ± 0.024 | -0.0165 ± 0.046
